What is called IC50 is the concentration that gives 50% inhibition. Read a low IC50 as greater potency in that assay.

SMILES strings stand for the structures.

Sequence of ASK1 (Q99683 whole entry): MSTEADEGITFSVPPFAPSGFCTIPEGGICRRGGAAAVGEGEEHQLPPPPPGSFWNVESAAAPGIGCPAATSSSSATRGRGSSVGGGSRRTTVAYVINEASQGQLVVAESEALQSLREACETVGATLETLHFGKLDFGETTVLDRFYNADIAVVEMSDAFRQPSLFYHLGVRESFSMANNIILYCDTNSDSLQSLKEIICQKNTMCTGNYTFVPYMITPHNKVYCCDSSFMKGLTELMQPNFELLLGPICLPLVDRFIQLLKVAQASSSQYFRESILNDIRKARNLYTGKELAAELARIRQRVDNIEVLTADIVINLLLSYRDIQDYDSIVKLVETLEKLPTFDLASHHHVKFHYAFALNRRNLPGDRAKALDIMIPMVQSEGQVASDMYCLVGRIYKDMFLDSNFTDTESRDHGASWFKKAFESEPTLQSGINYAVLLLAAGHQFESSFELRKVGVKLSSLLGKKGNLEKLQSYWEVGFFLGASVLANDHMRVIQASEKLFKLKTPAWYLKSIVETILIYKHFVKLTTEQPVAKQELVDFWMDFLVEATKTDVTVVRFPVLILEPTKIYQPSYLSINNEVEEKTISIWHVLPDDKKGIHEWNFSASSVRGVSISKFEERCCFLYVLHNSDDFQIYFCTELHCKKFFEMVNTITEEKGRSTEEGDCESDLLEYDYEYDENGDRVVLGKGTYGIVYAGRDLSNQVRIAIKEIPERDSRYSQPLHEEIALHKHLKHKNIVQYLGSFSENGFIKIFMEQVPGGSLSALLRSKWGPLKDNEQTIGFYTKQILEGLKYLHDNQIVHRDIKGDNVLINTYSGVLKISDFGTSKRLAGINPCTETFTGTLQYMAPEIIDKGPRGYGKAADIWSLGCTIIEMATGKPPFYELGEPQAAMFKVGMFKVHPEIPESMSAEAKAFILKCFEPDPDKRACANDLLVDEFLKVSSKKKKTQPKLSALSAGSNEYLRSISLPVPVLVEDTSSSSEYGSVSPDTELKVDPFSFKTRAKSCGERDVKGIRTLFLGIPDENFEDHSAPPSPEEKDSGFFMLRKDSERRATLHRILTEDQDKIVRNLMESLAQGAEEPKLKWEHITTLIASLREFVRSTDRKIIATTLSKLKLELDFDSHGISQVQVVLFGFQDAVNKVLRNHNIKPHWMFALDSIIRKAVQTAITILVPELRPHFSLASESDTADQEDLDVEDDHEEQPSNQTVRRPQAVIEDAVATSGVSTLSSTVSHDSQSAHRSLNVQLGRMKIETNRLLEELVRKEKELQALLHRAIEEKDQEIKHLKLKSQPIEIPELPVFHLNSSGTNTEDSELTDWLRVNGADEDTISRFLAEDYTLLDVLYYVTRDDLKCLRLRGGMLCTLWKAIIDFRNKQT

The test has as its target ASK1 (Homo sapiens (Human), UniProt Q99683). Description: HTRF KinEASE assay, inhibition of ASK1. It counts as biochemical. Particulars: ASK1 kinase, 100 μM ATP, 1 μM STK3 peptide substrate, TR-FRET. How it is done: Assay HTRF® KinEASE™ Assay
ASK1 was purchased from Thermofisher (Catalogue #PV4011), ATP was purchased from Sigma (Catalogue #A7699), HTRF® KinEASE™ Assay System was obtained from Cisbio (Bedford, Mass.). ½ Area plate was purchased from Perkin Elmer (Catalogue ##6005560). HTRF® KinEASE™-STK is a generic method for measuring serine/threonine kinase activities using a time-resolved fluorescence resonance energy transfer (TR-FRET) immunoassay. The IC50 value for each compound was determined in the presence of compound (various concentration from 0 to 10 μM) and a fixed amount of ATP and peptide substrates. The test compound, 1 μM STK3 peptide substrate, and […] of ASK1 kinase are incubated with kinase reaction buffer containing 50 mM HEPES Ph 7.5, 0.01% BRIJ-35, 10 mM MgCl2, and 1 mM EGTA for 30 minutes. 100 μM ATP is added to start kinase reaction and incubated for 3 hours. The STK3-antibody labeled with Eu^3+-Cryptate and 125 nM streptavidin-XL665 are mixed in a single addition with stop reagents provided by the Cisbio kit used to stop the kinase reaction. Fluorescence is detected using an Envision Multilabeled 2014 reader from PerkinElmer. The Fluorescence is measured at 615 nm (Cryptate) and 665 nm (XL665) and a ratio of 665 nm/615 nm is calculated for each well. The resulting TR-FRET is proportional to the phosphorylation level. Staurosporine was used as the positive control. IC50 was determined by Xlfit 5.3.
By using above method, the inhibition of ASK1 was evaluated for the compounds of Formula (I). Example numbers correspond to those in Table 6.
Turning to `COc1cc2c(cc1C(=O)Nc1cccc(-c3nnc4n3C(C)(C)CC4)n1)CN(C(=O)OC(C)(C)C)CC2` [Example 14, tert-butyl 7-((6-(5,5-dimethyl-6,7-dihydro-5H-pyrrolo[2,1-c][1,2,4]triazol-3-yl)pyridin-2-yl)carbamoyl)-6-methoxy-3,4-dihydroisoquinoline-2(1H)-carboxylate], the half-inhibitory concentration (IC50) lay within 1.25 to 10 nM.
Turning to `COc1cc2c(cc1C(=O)Nc1cccc(-c3nnc4n3C(C)(C)CC4)n1)CN(C(=O)C(C)(C)CO)CC2` [Example 17, N-(6-(5,5-dimethyl-6,7-dihydro-5H-pyrrolo[2,1-c][1,2,4]triazol-3-yl)pyridin-2-yl)-2-(3-hydroxy-2,2-dimethylpropanoyl)-6-methoxy-1,2,3,4-tetrahydroisoquinoline-7-carboxamide], the IC50 was < 1.25 nM.
In the case of `CCOC(=O)N1CCc2cnc(C(=O)Nc3cccc(-c4nnc5n4[C@H](C)CC5)n3)cc2C1` [Example 15] it was 1.25 to 10 nM; in that of `COc1cc2c(cc1C(=O)Nc1cccc(-c3nnc4n3C(C)(C)CC4)n1)CN(C(=O)C(C)(C)O)CC2` [Example 20, N-(6-(5,5-dimethyl-6,7-dihydro-5H-pyrrolo[2,1-c][1,2,4]triazol-3-yl)pyridin-2-yl)-2-(2-hydroxy-2-methylpropanoyl)-6-methoxy-1,2,3,4-tetrahydroisoquinoline-7-carboxamide], < 1.25 nM; in that of `COCCC(=O)N1CCc2cc(OC)c(C(=O)Nc3cccc(-c4nnc5n4C(C)(C)CC5)n3)cc2C1` [Example 16, N-(6-(5,5-dimethyl-6,7-dihydro-5H-pyrrolo[2,1-c][1,2,4]triazol-3-yl)pyridin-2-yl)-6-methoxy-2-(3-methoxypropanoyl)-1,2,3,4-tetrahydroisoquinoline-7-carboxamide], < 1.25 nM.
Take `COc1cc2c(cc1C(=O)Nc1cccc(-c3nnc4n3C(C)(C)CC4)n1)CN(C(=O)C[C@H](C)O)CC2` [Example 18, (S)—N-(6-(5,5-dimethyl-6,7-dihydro-5H-pyrrolo[2,1-c][1,2,4]triazol-3-yl)pyridin-2-yl)-2-(3-hydroxybutanoyl)-6-methoxy-1,2,3,4-tetrahydroisoquinoline-7-carboxamide]: the IC50 was < 1.25 nM.
In the case of `CCOC(=O)N1CCc2cc(F)c(C(=O)Nc3cccc(-c4nnc5n4[C@@H](C)CC5)n3)cc2C1` [Example 13] it was 10 to 100 nM.
In the case of `COc1cc2c(cc1C(=O)Nc1cccc(-c3nnc4n3C(C)(C)CC4)n1)CN(C(=O)[C@@H](O)CC(C)C)CC2` [Example 19, (S)—N-(6-(5,5-dimethyl-6,7-dihydro-5H-pyrrolo[2,1-c][1,2,4]triazol-3-yl)pyridin-2-yl)-2-(2-hydroxy-4-methylpentanoyl)-6-methoxy-1,2,3,4-tetrahydroisoquinoline-7-carboxamide] it was < 1.25 nM; in that of `CCOC(=O)N1CCc2cc(OC)c(C(=O)Nc3cccc(-c4nnc5n4CCC5)n3)cc2C1` [Example 21, Ethyl 7-((6-(6,7-dihydro-5H-pyrrolo[2,1-c][1,2,4]triazol-3-yl)pyridin-2-yl)carbamoyl)-6-methoxy-3,4-dihydroisoquinoline-2(1H)-carboxylate], 1.25 to 10 nM; in that of `CCOC(=O)N1CCc2cc(F)c(C(=O)Nc3cccc(-c4nnc5n4[C@H](C)CC5)n3)cc2C1` [Example 12], 1.25 to 10 nM.
Turning to `CCOC(=O)N1CCc2cc(F)c(C(=O)Nc3cccc(-c4nnc5n4C(C)(C)CC5)n3)cc2C1` [Example 11, Ethyl 7-((6-(5,5-dimethyl-6,7-dihydro-5H-pyrrolo[2,1-c][1,2,4]triazol-3-yl)pyridin-2-yl)carbamoyl)-6-fluoro-3,4-dihydroisoquinoline-2(1H)-carboxylate], the 50% inhibitory concentration (IC50) lay within 1.25 to 10 nM.

Source of the values: US11466033B2 (ENANTA PHARMACEUTICALS, INC., priority 2019, dated 2022).
